We go through twelve molecules from patent publication US5081126A, “Quinolyl- and isoquinolyl-methoxyphenyl-dithioacetyl derivatives useful as antiinflammatory agents” (Fujisawa Pharmaceutical Co., Ltd., priority 1987, dated 1992).

Usually IC50 stands for the point on the concentration scale where inhibition reaches its midpoint.

The structures appear in SMILES notation. Where a name gives a salt, the structure may show the parent alone.

This test relates to SRS-A (Slow Reacting Substance of Anaphylaxis) synthesis in rat polymorpholeukocyte (PMN). The experiment in a line: Inhibiting activity of SRS-A (Slow Reacting Substance of Anaphylaxis) synthesis in rat polymorpholeukocyte (PMN) using the calcium ionophore; i-LTC4 by radioimmunoassay. As to conditions: 0.25 h, 10 μM A23187, 15 min at 37° C., i-LTC4 readout. It counts as cell-based. Here is the method: Test : Inhibiting activity of SRS-A (Slow Reacting Substance of Anaphylaxis) synthesis in rat polymorpholeukocyte (PMN) of using the calcium ionophore
Preparation of PMN from rat
Male Spraque-Dawley rats weighing 250-300 g were anesthetized with ether and each was injected intraperitoneally with 20 ml of 0.1% glycogen (from Oyster). After 20 hours the rats were sacrificed and PMN were recovered in rinse of the peritoneal cavity with 10 ml Dulbeccos PBS (components in G/L : CaCl 0.1, KH2 PO4 0.2, MgCl2.6H2 O 0.1, NaCl 8.0, Na2 HPO4.7H2 O 2.16; pH 7.4). These rinses were filtered through nylon wool filter and centrifuged for 5 min at 1000 xg. The pellet was suspended in Dulbeccos PBS and centrifuged for 5 min at 1000 xg. The pellet was resuspended in Dulbeccos PBS and adjusted the cell concentration to 10^7 cells/ml with Dulbeccos PBS.
Samples were dissolved in ethanol and dispersed in Dulbeccos PBS to give a concentration of 10^-8 to 10^-3 M. Antibiotic A23187; calcium ionophor (Dehring Diagnostics; (hereinafter referred to A23187) in DMSO (10mM) was diluted with Dulbeccos PBS tc give the concentration of 1 mM. Aliquots of the cell suspension (1×10^7 cells/ml, 0.98 ml) were equilibrated for 30 min at 37° C. Solution of sample(10 ul) was added and incubated for 15 min at 37° C. before the addition of 10 μl of A23187 solution. Thus the final incubation volume of 1 ml contained approximately 1×10^7 cells, 10^-10 to […] M samples and 10 μM A23187. Incubation with A23187 were continued for 15 min at 37° C. The reactions were terminated by setting the assay tubes in ice bath to chill as rapidly as possible to 4° C. The test tubes were centrifuged at 1500 xg for 5 min at 4° C. and decanted the supernatants into the tubes and kept cold prior to assaying.
Determination of immunoreactive LTC4 (i-LTC4)
The concentration of i-LTC4 in the cell-free supernatants from the incubations were determined by specific radioimmunoassay. The mean values of i-LTC4 (these incubations were carried out in duplicate) of each sample were calculated and the effect of samples on the synthesis of the leukotrienes was presented as a percentage of the value in the absence of samples.
For `CCCSC(SCCC)c1cccc(OCc2nc3ccccc3s2)c1` [Example 1, 2-[[[3-bis(propylthio)methyl]phenoxy]methyl]benzothiazole], the IC50 is 300 nM. As to `CCCSC(SCCC)c1cccc(OCc2ccccn2)c1` [Example 2, 2-[[[3-Bis(propylthio)methyl]phenoxy]methyl]pyridine hydrochloride], the IC50 turned out to be 520 nM. Take `CCCSC(SCCC)c1cccc(OCc2ccc3ccccc3n2)c1` [Example 3, 2-[[[3-bis(propylthio)methyl]phenoxy]methyl]quinoline hydrochloride]: the IC50 is 39 nM. The same measure for `CCCSC(SCCC)c1ccc(OCc2ccc3ccccc3n2)cc1` [Example 5, 2-[[[4-Bis(propylthio)methyl]phenoxy]methyl]quinoline hydrochloride]: 110 nM. Consider `CCSC(SCC)c1cccc(OCc2ccc3ccccc3n2)c1` [Example 6, 2-[[[3-Bis(ethylthio)methyl]phenoxy]methyl]quinoline hydrochloride], for which the IC50 came to 130 nM. With `CCCCSC(SCCCC)c1cccc(OCc2ccc3ccccc3n2)c1` [Example 7, 2-[[[3-Bis(butylthio)methyl]phenoxy]methyl]quinoline hydrochloride], the IC50 is 160 nM.

Consider `CCCCCSC(SCCCCC)c1cccc(OCc2ccc3ccccc3n2)c1` [Example 8, 2-[[[3-Bis(pentylthio)methyl]phenoxy]methyl]quinoline hydrochloride], for which the IC50 amounted to 330 nM. On to `CC(C)SC(SC(C)C)c1cccc(OCc2ccc3ccccc3n2)c1` [Example 9, 2-[[[3-Bis(isopropylthio)methyl]phenoxy]methyl]quinoline hydrochloride], for which the IC50 was found to be 100 nM. The same measure for `c1ccc(SC(Sc2ccccc2)c2cccc(OCc3ccc4ccccc4n3)c2)cc1` [Example 10, 2-[[[3-Bis(phenylthio)methyl]phenoxy]methyl]quinoline hydrochloride]: 1100 nM. On to `c1ccc(CSC(SCc2ccccc2)c2cccc(OCc3ccc4ccccc4n3)c2)cc1` [Example 11, 2-[[[3-Bis(benzylthio)methyl]phenoxy]methyl]quinoline], for which the IC50 was determined as 1400 nM. As for `CC(C)SC(SC(C)C)c1cccc(OCc2nc3ccccc3s2)c1` [Example 16, 2-[[[3-Bis(isopropylthio)methyl]phenoxy]methyl]benzothiazole], the half-maximal inhibitory concentration (IC50) was found to be 110 nM. `CCCSC(SCCC)c1cccc(OCc2ncc3ccccc3n2)c1` [Example 22, 2-[[[3-Bis(propylthio)methyl]phenoxy]methyl]quinazoline hydrochloride]: the IC50 stood at 850 nM.
